For data set [1], the system named is NCTC 2544 human keratinocytes. Put plainly: MTT assay, cell viability. It is filed as cell-based. The note with it: for tolerability by NCTC2544 human keratinocytes: 2.5-5 and 10 μM. The protocol: The data represent mean values ±standard deviation. Each treatment was carried out in duplicate.
The data are expressed as mean values ±standard deviation. Each treatment was carried out in duplicate.
The MTT test is useful to assess in vitro cell viability following the treatment with diluted compounds. The MTT method has been used as an indirect measure of cell viability.
The effects on NCTC 2544 cell proliferation from compounds 18-β and POLY-GLY-S at different concentrations have been examined.
The cells have been plated at low densities and treated with different concentrations of active compounds and negative control, in culture medium EMEM, without phenol red supplemented at 10% with FCS, 2 mM L-glutamine, 1% NEAA solution and 1% antibiotic mixture for 24, 48 and 72 hours and cell viability has been assessed by the MTT assay. The cell viability percentage compared to control (FIGS. 1-2) has been calculated after 24, 48 and 72 hours of incubation. […] The same results have been obtained after a prolonged cells exposure (48-72 hours) to tested compounds for all the considered concentrations.

In data set [2] the test system is expression of the TNF-α gene in NCTC 2544 human keratinocytes. Put plainly: Inflammation assessment assay: expression of the TNF-α gene by RT-PCR in LPS-treated cells. It is filed as cell-based. Conditions: for inhibition of the expression of the TNF-α gene / anti-inflammatory effect (inhibiting the expression of the TNF-α gene): LPS 5 μg/ml; for inhibition of the expression of the TNF-α gene: 48 hrs of treatment, compared to cells treated only with LPS; for anti-inflammatory effect (inhibiting the expression of the TNF-α gene): 2.5-5-10 μM, after 48 hrs of treatment. How it is done: The NCTC 2544 cells were treated at 37° C. for 48 hours, at 5% CO2, with: basal culture medium, containing 2.5% fetal bovine serum (negative control), with: basal culture medium, containing 2.5% fetal bovine serum supplemented with LPS (5 μg/ml) (positive control), with: basal culture medium, containing 2.5% fetal bovine serum supplemented with LPS (5 μg/ml) and 18-β-glycyrrhetinic acid (18-β) at a concentration of 2.5-5-10 μM, with: basal culture medium, containing 2.5% fetal bovine serum supplemented with LPS (5 μg/ml), and POLY-GLY-S at a concentration of 2.5-5-10 μM. The results are expressed as a percentage of inflammation as compared to cells treated with LPS. The values represent the mean values of 2 experiments in duplicate.
The anti-inflammatory effects of ester having formula (Ia) of Example 1 (referred to as ‘POLY-GLY-S’ for shortness of description) have been investigated in an in vitro inflammation model, on NCTC2544 human keratinocytes and using lipopolysaccharide (LPS) from E. coli as mediator of inflammatory state. The effect of derivative in the models used has been compared to that of 18-β-glycyrrhetic acid (referred to as ‘18-β’ for shortness of description).
Furthermore, the in vitro inflammatory potential of POLY-GLY-S towards a positive control (cells treated with 5 μg/ml lipopolysaccharide) was determined. The data obtained have been compared to those obtained, in the same experimental model, using 18-β.
Inflammation Assessment Assay
The expression of the TNF-α gene on NCTC 2544 cells was assessed by RT-PCR.
The gene expression analysis implies four steps: • 1. Cell treatment with active compounds for 48 hrs; • 2. RNA extraction; • 3. cDNA reverse transcription; • 4. quantitative […].
In experimental conditions, in connection with the results obtained in the previous MIT assay, POLY-GLY-S and 18-β have been tested at a concentration of 20 μM (final concentration in the culture medium). Both positive control and negative control have been tested.
When the cells (NCTC 2544 human keratinocytes) had reached about 80% confluence, they were removed with trypsin/EDTA and seeded at a density of 1×10^6 cells/ml in 12-well plates and then incubated at 37° C., 5% CO2 (24 h).
When the cells had reached about 80% confluence, the complete medium was removed; cells were washed with PBS 1× and incubated in EMEN (EBSS) with 2.5% FBS, supplemented with 2 mM L-glutamine, 1% NEAA solution and 1% antibiotic mixture at 37° C., 5% CO2 for at least 4 hrs.
POLY-GLY-S and 18-β were dissolved in EMEN supplemented with 2.5% FBS, 2 mM L-glutamine, 1% NEAA solution and 1% penicillin (10,000 U/ml)/streptomycin (10,000 μg/ml) mixture.
Controls only containing culture medium (negative control) and culture medium plus LPS (5 μg/ml) (positive control) have been included in each plate.
Cells were exposed to increasing concentrations of compounds to be tested, i.e. 2.5-5-10 μM.
To each well LPS at a concentration of 5 μg/ml was added. Each sample was tested in duplicate.
Then cells were incubated at 37° C., 5% CO2 for 24 hrs.
Total RNA was extracted from cells using a single homogeneous solution Tri-reagent (Sigma Aldrich) to isolate RNA following manufacturer's instructions.
The extracted and quantified total RNA was amplified using the “High-Capacity cDNA Reverse transcription Kit” (Applied Biosystems).
RT-PCR was carried out using TaqMan linear probes (Applied Biosystems). These probes are the most used and published detection system for qPCR applications. In stock probes and primer were selected based on previous specific bibliographic studies.
The relative quantification method was used where the gene relative concentration of interest (target) is compared with unknown samples to a calibrator or control sample (untreated cells).
10 μl TaqMan 2× Gene Expression master Mix and 1 μl 20× TaqMan Gene Expression were added to cDNA. […]

For data set [3] the following is noted: cited from earlier work.
[4] abbreviates: 24 hours of incubation, all tested concentrations (18-β 2.5-80 μM, ester (Ia) 0.625-80 μM).
[5] abbreviates: prolonged exposure 48-72 hours, all considered concentrations.

These results are taken from US9394335B2, “Esters of glycyrrhetinic acid, preparation and cosmetic applications thereof” (GIULIANI S.P.A., priority 2012, dated 2016).

On to `CC1(C)[C@@H](O)CC[C@]2(C)[C@H]3C(=O)C=C4[C@@H]5C[C@@](C)(C(=O)OCC(O)C(O)C(O)C(O)COCC(O)COCC(O)COCC(O)CO)CC[C@]5(C)CC[C@@]4(C)[C@]3(C)CC[C@@H]12` (stereo partly drawn) [POLY-GLY-S, glycyrrhetinic ester of polyglycerol-3-sorbitol], for which the “tolerability by NCTC2544 human keratinocytes” value in data set [1] is given as “well tolerated”. Also, the “cytotoxic effect on NCTC2544 compared to control (MTT, % viability)” value is on record as “none” in data set [1] (setting [4]) and “same results” in data set [1] (setting [5]). Also, the “inhibition of the expression of the TNF-α gene” value in data set [2] (2.5 μM) was found to be 43.99%; in data set [2] (5 μM), 40.71%; in data set [2] (10 μM), 54.36%. Besides, the “anti-inflammatory effect (inhibiting the expression of the TNF-α gene)” value in data set [2] is reported as “significantly effective”. Moreover, the “reduction of the expression of the TNF-α gene” value in data set [2] (all the concentrations assayed, 48 hours of incubation (conclusions)) is listed as “at least 50%”.
On to `CC1(C)[C@@H](O)CC[C@]2(C)[C@H]3C(=O)C=C4[C@@H]5C[C@@](C)(C(=O)O)CC[C@]5(C)CC[C@@]4(C)[C@]3(C)CC[C@@H]12` [18-β, 18-Beta glycyrrhetinic acid, reference compound], for which, in data set [1], the “tolerability by NCTC2544 human keratinocytes” value is “well tolerated”. In addition, the “cytotoxic effect on NCTC2544 compared to control (MTT, % viability)” value in data set [1] (setting [4]) is “none”; in data set [1] (setting [5]) it was “same results”. For the same compound, the “anti-inflammatory effect (inhibiting the expression of the TNF-α gene)” value in data set [2] is “no longer had anti-inflammatory effect”. Also, the solubility in ethanol entry in data set [3] (ethanol) is “soluble”. Also, the solubility in oils result in data set [3] (oils) is on record as “insoluble”. Besides, the solubility in water entry in data set [3] (water) is “insoluble”.
